Tests used:
Format in all cases: physicochemical
[1] = Hydration number q from lifetimes in deuterated and protic solvents; details: from kCH3OH − kCD3OD, equations of footnotes b, c, e, g
Text: One parameter that can be obtained from the recording of luminescence lifetimes is the hydration number q. […] This non-zero q value is particularly detrimental for the intensity of the luminescence (and to the corresponding quantum yield values) of NIR-emitting lanthanides since the overtones of high-energy vibrations of the solvent molecules create a route for non-radiative deactivation.

[2] = Ligand triplet state from phosphorescence of Gd3+ analogues; details: T1 = 22 170 cm^−1; Ga4Ln(shi)4
Procedure: (§1) Luminescence data were collected on samples placed into 2.4 mm i.d. quartz capillaries or quartz Suprasil cells. Emission and excitation spectra were measured on a Horiba-Jobin-YvonFluorolog 3 spectrofluorimeter equipped with either a visible photomultiplier tube (PMT) (220-800 nm, R928P; Hamamatsu), a NIR solid-state InGaAs detector cooled to 77 K (800-1600 nm, DSS-IGA020L; Jobin-Yvon), or NIR PMTs (950-1450 nm, H10330-45; 950-1650 nm, H10330-75; Hamamatsu). All spectra were corrected for instrumental functions. Luminescence lifetimes were determined under excitation at 355 nm provided by a Nd:YAG laser (YG 980; Quantel), while the signal was detected in the NIR by the aforementioned PMT (H10330-75). The output signal from the detectors was then fed to a 500 MHz bandpass digital oscilloscope (TDS 754C; Tektronix) and then transferred to a PC for treatment with Origin 8®. Luminescence lifetimes are averages of at least three independent measurements. Quantum yields were determined with a Fluorolog 3 spectrofluorimeter according to an absolute method using an integration sphere (GMP SA). Each sample was measured several times under slightly different experimental conditions. Estimated experimental error for quantum yields determination is 10%.
Phosphorescence can be observed by recording the signal emitted from Ga4Gd(shi)4 in time-resolved mode in the solid state at 77K upon excitation at 350 nm and using a 200 μS delay after the excitation flash (FIG. 9). The 0-0 component of this band represents the energy level of the ligand's triplet state (T1=22,170 cm^−1, 451 nm) which is attributed to the energy level responsible for the main contribution of the transfer to the Ln^3+. The T1 level is sufficiently high in energy to populate the excited states of a wide range of visible and NIR-emitting Ln^3+.
Since the Ga8Ln2(shi)8 dimer compounds were insoluble in all solvents, the solid state photophysical data alone were collected. As with the Ga4Gd(shi)4 compound, the Ga8Gd2(shi)8 complex may be used to examine the ligand-based photophysical properties. […] The solid state ligand phosphorescence was obtained at 77 K using an excitation wavelength of 350 nm and a 100 μs delay (FIG. 11). The profile of the phosphorescence is similar to that of Ga4Gd(shi)4 (FIG. 9), which was expected, since both compounds are formed by the same framework ligand, H3shi. The 0-0 transition was determined to be located at 455 nm, or 21 978 cm^−1. This triplet state energy is slightly lower than that of the Ga4Gd(shi)4 compound (22 170 cm^−1), but still is sufficiently high in energy to sensitize visible (Dy^3+, Tb^3+, Sm^3+) and/or NIR emitting (Dy^3+, Sm^3+, Ho^3+, Yb^3+, Pr^3+, Nd^3+, Er^3+) lanthanides.

[3] = Luminescence lifetimes under excitation at 355 nm
Procedure: as §1

[4] = Quantum yields by absolute method using an integration sphere
Procedure: as §1

[Ga4Dy(shi)4(C6H5CO2)4(C5H5N)(CH3OH)].C5H6N.C5H5N.CH3OH
q (hydration number) [1]: 0.7^e
ΔE (cm^−1), energy gap between ligand triplet state and Ln3+ emissive state [2]: 1 070 cm^−1
τobs (μs) ([3]; Ga4Ln(shi)4, CD3OD): 25.5(7) μs
τobs (μs) ([3]; Ga4Ln(shi)4, CH3OH): 12.0(1) μs
τobs (μs) ([3]; Ga4Ln(shi)4, Solid): 21.2(2) μs
QLn^L (%) (NIR) ([4]; Ga4Ln(shi)4, CD3OD): 6.0(1) · 10^−2%
QLn^L (%) (visible) ([4]; Ga4Ln(shi)4, CD3OD): 0.78(1) %
QLn^L (%) (NIR) ([4]; Ga4Ln(shi)4, CH3OH): 2.4(1) · 10^−2%
QLn^L (%) (visible) ([4]; Ga4Ln(shi)4, CH3OH): 0.38(1) %
QLn^L (%) (NIR) ([4]; Ga4Ln(shi)4, Solid): 0.21(1) %
QLn^L (%) (visible) ([4]; Ga4Ln(shi)4, Solid): 2.10(1) %

— patent publication US10562920B2, “Ln(III) and Ga(III) metallacrown complexes” (The Regents of the University of Michigan, priority 2015, dated 2020)
